{"source": "patent US9718788B2", "about": "“Heteroaryl compounds useful as inhibitors of E1 activating enzymes” (MILLENNIUM PHARMACEUTICALS, INC., priority 2006, dated 2017)", "data": [{"molecular_target": "T1, recombinant human NAE enzyme (Homo sapiens, UniProt Q8TBC4)", "T1 construct": "His (N); made in house; host or cells: Sf9 insect cells (baculovirus, Bac-to-Bac)", "T1 sequence (Q8TBC4 1-463)": "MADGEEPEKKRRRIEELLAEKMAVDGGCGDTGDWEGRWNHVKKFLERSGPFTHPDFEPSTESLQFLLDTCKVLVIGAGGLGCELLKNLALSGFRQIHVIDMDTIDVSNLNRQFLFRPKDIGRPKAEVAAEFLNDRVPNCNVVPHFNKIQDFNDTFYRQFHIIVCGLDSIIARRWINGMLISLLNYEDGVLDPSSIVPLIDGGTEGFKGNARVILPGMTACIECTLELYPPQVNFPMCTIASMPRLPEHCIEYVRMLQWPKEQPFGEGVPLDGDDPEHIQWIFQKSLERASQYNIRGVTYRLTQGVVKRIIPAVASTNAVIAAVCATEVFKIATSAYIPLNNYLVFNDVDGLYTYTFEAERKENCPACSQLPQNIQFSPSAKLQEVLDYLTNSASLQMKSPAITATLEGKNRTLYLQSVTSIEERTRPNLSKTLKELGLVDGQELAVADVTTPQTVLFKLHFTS", "T1 sequence (Q13564 1-534 partner)": "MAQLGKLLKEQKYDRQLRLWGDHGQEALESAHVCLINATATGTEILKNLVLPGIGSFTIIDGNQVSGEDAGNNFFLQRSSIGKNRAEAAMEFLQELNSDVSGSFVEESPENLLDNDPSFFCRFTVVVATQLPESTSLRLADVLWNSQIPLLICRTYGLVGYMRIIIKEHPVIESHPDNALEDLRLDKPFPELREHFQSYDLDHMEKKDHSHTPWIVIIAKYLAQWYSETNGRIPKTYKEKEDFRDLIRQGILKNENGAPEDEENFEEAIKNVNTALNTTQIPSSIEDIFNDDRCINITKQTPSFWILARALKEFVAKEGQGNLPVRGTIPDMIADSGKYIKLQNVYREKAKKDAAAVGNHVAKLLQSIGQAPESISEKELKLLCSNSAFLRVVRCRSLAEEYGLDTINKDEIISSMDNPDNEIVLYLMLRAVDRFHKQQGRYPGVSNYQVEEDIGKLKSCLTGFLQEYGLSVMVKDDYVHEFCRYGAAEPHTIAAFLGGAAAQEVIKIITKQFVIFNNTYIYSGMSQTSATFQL", "test": "Nedd8-Activating Enzyme (NAE) HTRF Assay", "type": "biochemical", "conditions": "20 μM ATP, bound given in nM", "procedure,_shortened": "(§1)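 Recombinant human NAE (NAEα/His-NAEβ from Sf9 cells) at 0.20 nM with 20 μM ATP, 0.01 μM Ubc12-GST and 0.075 μM Nedd8-Flag in HEPES pH 7.5, 105 min at 24° C. EDTA stop; Eu-anti-FLAG/APC-anti-GST HTRF read after 1 h.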", "units": {"IC50": "nM"}, "values": [{"smiles": "Cc1cccc(Sc2nc3ncnc(O[C@@H]4C[C@@H](COS(N)(=O)=O)[C@@H](O)C4)c3[nH]2)c1", "note": "[Compound I-136, [(1S,2S,4R)-2-hydroxy-4-({8-[(3-methylphenyl)sulfanyl]-7H-purin-6-yl}oxy)cyclopentyl]methyl sulfamate]", "IC50": "≤ 500"}, {"smiles": "CN(C)c1ccccc1-c1nc2c(N[C@@H]3C[C@@H](COS(N)(=O)=O)[C@@H](O)C3)ncnc2[nH]1", "note": "[Compound I-137, [(1S,2S,4R)-4-({8-[2-(dimethylamino)phenyl]-9H-purin-6-yl}amino)-2-hydroxycyclopentyl]methyl sulfamate]", "IC50": "≤ 500"}, {"smiles": "OC[C@@H]1C[C@@H](Nc2ncnc3[nH]c(-c4cccc5c4OCCO5)nc23)C[C@@H]1O", "note": "[Compound I-138, (1S,2S,4R)-4-{[8-(2,3-dihydro-1,4-benzodioxin-5-yl)-9H-purin-6-yl]amino}-2-(hydroxymethyl)cyclopentanol]", "IC50": "> 500"}, {"smiles": "NS(=O)(=O)OC[C@@H]1C[C@@H](Oc2ncnc3nc(-c4ccc(N5CCCC5)c5ccccc45)[nH]c23)C[C@@H]1O", "note": "[Compound I-139, ((1S,2S,4R)-2-hydroxy-4-{[8-(4-pyrrolidin-1-yl-1-naphthyl)-7H-purin-6-yl]oxy}cyclopentyl)methyl sulfamate]", "IC50": "≤ 500"}, {"smiles": "NS(=O)(=O)OC[C@@H]1C[C@@H](Oc2ncnc3nc(-c4c[nH]c5ccccc45)[nH]c23)C[C@@H]1O", "note": "[Compound I-140, ((1S,2S,4R)-2-hydroxy-4-{[8-(1H-indol-3-yl)-7H-purin-6-yl]oxy}cyclopentyl)methyl sulfamate]", "IC50": "≤ 500"}, {"smiles": "NS(=O)(=O)OC[C@@H]1C[C@@H](Oc2cc(OCc3ccc4ccccc4c3)ncn2)C[C@@H]1O", "note": "[Compound I-141, ((1S,2S,4R)-2-hydroxy-4-{[6-(2-naphthylmethoxy)pyrimidin-4-yl]oxy}cyclopentyl)methyl sulfamate]", "IC50": "> 500"}, {"smiles": "CO[C@H]1CCc2ccccc2[C@H]1Nc1cc(O[C@@H]2C[C@@H](COS(N)(=O)=O)[C@@H](O)C2)ncn1", "note": "[Compound I-142, {(1S,2S,4R)-2-hydroxy-4-[(6-{[(1R,2S)-2-methoxy-1,2,3,4-tetrahydronaphthalen-1-yl]amino}pyrimidin-4-yl)oxy]cyclopentyl}methyl sulfamate]", "IC50": "≤ 500"}, {"smiles": "CO[C@@H]1CCc2ccccc2[C@@H]1Nc1cc(O[C@@H]2C[C@@H](COS(N)(=O)=O)[C@@H](O)C2)ncn1", "note": "[Compound I-143, {(1S,2S,4R)-2-hydroxy-4-[(6-{[(1S,2R)-2-methoxy-1,2,3,4-tetrahydronaphthalen-1-yl]amino}pyrimidin-4-yl)oxy]cyclopentyl}methyl sulfamate]", "IC50": "≤ 500"}, {"smiles": "NS(=O)(=O)OC[C@@H]1C[C@@H](N2CCc3c(N[C@H]4CCc5ccccc54)ncnc32)C[C@@H]1O", "note": "[Compound I-146, ((1S,2S,4R)-4-{4-[(1S)-2,3-dihydro-1H-inden-1-ylamino]-5,6-dihydro-7H-pyrrolo[2,3-d]pyrimidin-7-yl}-2-hydroxycyclopentyl)methyl sulfamate]", "IC50": "≤ 500"}, {"smiles": "NS(=O)(=O)OC[C@@H]1C[C@@H](Nc2ncnc(N[C@@H]3c4ccccc4CC3(F)F)n2)C[C@@H]1O", "note": "[Compound I-147, {(1S,2S,4R)-4-[(4-{[(1R)-2,2-difluoro-2,3-dihydro-1H-inden-1-yl]amino}-1,3,5-triazin-2-yl)amino]-2-hydroxycyclopentyl}methyl sulfamate]", "IC50": "≤ 500"}]}, {"molecular_target": "T1, recombinant human NAE enzyme", "test": "Nedd8-Activating Enzyme (NAE) HTRF Assay", "type": "biochemical", "conditions": "20 μM ATP, bound given in μM", "procedure,_shortened": "as §1", "units": {"IC50": "nM"}, "values": [{"smiles": "OC[C@@H]1C[C@@H](Nc2ncnc3[nH]c(-c4cccc5c4OCCO5)nc23)C[C@@H]1O", "note": "[Compound I-138, (1S,2S,4R)-4-{[8-(2,3-dihydro-1,4-benzodioxin-5-yl)-9H-purin-6-yl]amino}-2-(hydroxymethyl)cyclopentanol]", "IC50": "< 10000"}, {"smiles": "NS(=O)(=O)OC[C@@H]1C[C@@H](Oc2cc(OCc3ccc4ccccc4c3)ncn2)C[C@@H]1O", "note": "[Compound I-141, ((1S,2S,4R)-2-hydroxy-4-{[6-(2-naphthylmethoxy)pyrimidin-4-yl]oxy}cyclopentyl)methyl sulfamate]", "IC50": "< 10000"}, {"smiles": "NS(=O)(=O)OC[C@H]1C[C@@H](Nc2ccnc(C(=O)N[C@H]3CCc4ccccc43)c2)[C@H](O)[C@@H]1O", "note": "[Compound I-144, {(1R,2R,3S,4R)-4-[(2-{[(1S)-2,3-dihydro-1H-inden-1-ylamino]carbonyl}pyridin-4-yl)-amino]-2,3-dihydroxycyclopentyl}methyl sulfamate]", "IC50": "> 10000"}, {"smiles": "NS(=O)(=O)OC[C@H]1C[C@@H](Nc2ccnc(C(=O)N3CCc4ccccc43)c2)[C@H](O)[C@@H]1O", "note": "[Compound I-145, ((1R,2R,3S,4R)-4-{[2-(2,3-dihydro-1H-indol-1-ylcarbonyl)pyridin-4-yl]amino}-2,3-dihydroxycyclopentyl)methyl sulfamate]", "IC50": "> 10000"}]}]}
